Data taken from ChEMBL document CHEMBL1201862, “PubChem BioAssay data set” (2004).
The source made the active and inactive calls.

Assays:
[1] = NIH3T3 cell viability loss – ATP luminescence, mouse fibroblasts, counter-screen, dose response (AID 2010); type: functional, cell-based;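 also: cells exposed to compound for about 90 hours before reading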
[2] = Trypanosoma cruzi growth suppression in host cells – NIH3T3 host cells, beta-gal luminescence, confirmation (AID 2044); type: functional, cell-based;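 also: intracellular parasites grown in NIH/3T3 mouse fibroblasts as host cells; luminescent beta-galactosidase reporter signal from transgenic T. cruzi replicating inside host cells; inhibitors lower the luminescence signal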
cells [3] = assay: cells
[4] = loss of viability in HepG2 cells – cell-based, CellTiter-Glo, cherry-picked, cytotoxicity control for Shn3 inhibitor project, dose response (AID 624134); type: functional
[5] = molecular target: T1, Heat shock factor protein 1 (Mus musculus, UniProt P38532); assay: enhancement of HSF1-driven luciferase signal – cell-based, NIH3T3, luminescence, dose retest, confirmation (AID 435004); type: functional;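 also: stress induced by proteasome inhibitor MG132 added 30 min after compound; luciferase reporter driven by HSF1 response element in NIH3T3 cells; actives raise luminescence as potentiators of the MG132 stress response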
T1 sequence (P38532 whole entry): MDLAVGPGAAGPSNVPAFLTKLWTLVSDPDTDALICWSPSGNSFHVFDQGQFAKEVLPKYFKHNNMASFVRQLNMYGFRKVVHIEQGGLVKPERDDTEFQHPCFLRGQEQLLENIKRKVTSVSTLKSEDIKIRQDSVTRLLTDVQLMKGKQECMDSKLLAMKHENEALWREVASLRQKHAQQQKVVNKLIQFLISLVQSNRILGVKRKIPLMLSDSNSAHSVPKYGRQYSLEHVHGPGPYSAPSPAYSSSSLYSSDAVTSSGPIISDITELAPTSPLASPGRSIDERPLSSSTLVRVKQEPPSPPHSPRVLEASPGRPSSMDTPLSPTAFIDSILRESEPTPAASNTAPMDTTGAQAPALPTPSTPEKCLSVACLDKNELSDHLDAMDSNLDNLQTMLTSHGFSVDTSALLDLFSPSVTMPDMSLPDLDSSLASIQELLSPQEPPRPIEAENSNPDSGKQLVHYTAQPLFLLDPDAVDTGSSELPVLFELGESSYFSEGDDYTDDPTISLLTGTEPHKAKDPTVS

[6] = reduction of Shn3 3'UTR-driven luciferase in osteoblasts – cell-based, Clone20 osteoblasts, firefly luciferase, cherry-picked, dose response (AID 624132); type: functional;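 also: firefly luciferase luminescence from reporter carrying the Shn3 3'UTR in osteoblasts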
[7] = Luminescence Cell-Based Dose Retest to Confirm Inhibitors of Cancer Stem Cells. [Related pubchem assays (depositor defined):AID2717, AID2721]; type: functional; conditions: Homo sapiens
[8] = viability of HCT116 lacking mutant beta-catenin – cell-based, human colon tumor, dose response (AID 1045); type: functional;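 also: HCT116 colon tumor cells with beta catenin knocked out; cells exposed to compound for 60 hours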
Fatty acid synthase [9] = molecular target: T2, Fatty acid synthase (Homo sapiens, UniProt P49327); assay: inhibition of human FAS-TE enzyme activity – biochemical, endpoint fluorescence intensity, uHTS hits, dose response (AID 624327); type: functional;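 also: fluorescence from hydrolysis of an O-methyl fluorescein acyl ester substrate by the enzyme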
[10] = viability of PTEN-deleted HCT116 cells – cell-based, HCT116 PTEN knockout, dose response (AID 1047); type: functional;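 also: HCT116 colon tumor cells with PTEN knocked out; cells exposed to compound for 60 hours before readout; potency for loss of cell viability measured by luminescence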
[11] = molecular target: T3, Mannose-6-phosphate isomerase (Homo sapiens, UniProt P34949); assay: MPI inhibition at elevated mannose 6-phosphate – biochemical, fluorescence intensity, high mannose 6-phosphate, primary screen (AID 1220)
T3 sequence (P34949 whole entry): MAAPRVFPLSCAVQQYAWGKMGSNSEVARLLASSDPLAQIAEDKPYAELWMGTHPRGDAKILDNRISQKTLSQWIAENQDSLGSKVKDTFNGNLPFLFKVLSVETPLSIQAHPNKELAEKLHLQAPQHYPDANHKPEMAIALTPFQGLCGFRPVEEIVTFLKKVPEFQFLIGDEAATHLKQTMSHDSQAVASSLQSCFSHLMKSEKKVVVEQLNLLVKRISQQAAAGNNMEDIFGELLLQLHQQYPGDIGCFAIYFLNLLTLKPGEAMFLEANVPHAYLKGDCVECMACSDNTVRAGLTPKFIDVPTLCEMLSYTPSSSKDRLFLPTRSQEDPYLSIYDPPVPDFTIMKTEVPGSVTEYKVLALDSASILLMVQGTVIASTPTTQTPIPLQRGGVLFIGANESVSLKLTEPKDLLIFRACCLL

[12] = non-specific 3'UTR reporter inhibition in Clone20-Shn3RL – cell-based, Renilla luciferase, cherry-picked, counter-screen for Shn3 inhibitor project, dose response (AID 624133); type: functional
Fatty acid synthase [13] = molecular target: T2, Fatty acid synthase; assay: inhibition of human FAS-TE enzyme activity – biochemical, kinetic fluorescence intensity, dose response (AID 624326); type: functional;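 also: rate of fluorescence rise from hydrolysis of a fluorogenic O-methyl fluorescein ester substrate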
Prothrombin = Prothrombin (Homo sapiens, UniProt P00734); assay: Thrombin 1536 HTS Dose Response Confirmation. [Related pubchem assays: 1046 (Thrombin 1536 HTS; hits were confirmed in this assay)]; type: functional
Cytochrome P450 2D6 = Cytochrome P450 2D6 (Homo sapiens, UniProt P10635);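 also: CYP2D6 member of a cytochrome P450 panel assay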
Cytochrome P450 2C9 = Cytochrome P450 2C9 (Homo sapiens, UniProt P11712)
cells [14] = type: functional, cell-based
Cytochrome P450 3A4 = Cytochrome P450 3A4 (Homo sapiens, UniProt P08684);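 also: CYP3A4 tested as one member of a cytochrome P450 panel screen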
cells [15] = type: functional, cell-based; remark: listed apart in the source
[16] = growth inhibition of PfATP4-mutant resistant parasites – NITD609-resistant line, SYBR Green, dry powder, dose response (AID 1159571); type: functional, cell-based;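 also: parasites synchronized at ring stage by sorbitol before testing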
[17] = growth inhibition of yeast DHODH-expressing 3D7 parasites – SYBR Green, dry powder samples, dose response (AID 1159570); type: functional, cell-based;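 also: parasite growth measured after 72 hours of compound exposure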
[18] = P. falciparum Dd2 growth inhibitors, dose response, SYBR Green, cherry-picked samples (AID 1159567); type: functional, cell-based
[19] = Dd2 malaria parasite growth inhibition potency – SYBR Green, dry powder samples, dose response (AID 1159566); type: functional, cell-based;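 also: potency for growth inhibition with lower SYBR green DNA signal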
[20] = viability loss in Vero cells – cytotoxicity control for Vif-APOBEC3G degradation inhibitor project, dose response (AID 1117358); type: functional; conditions: Vero
[21] = HPDE-C7 pancreatic duct cell viability loss – fluorescence, HTS (AID 430); type: functional, cell-based; conditions: Homo sapiens
[22] = viability loss of HPDE-C7K cells – cell-based, fluorescence, HTS, primary screen (AID 431); type: functional; conditions: Homo sapiens
Protein Tat = molecular target: T4, Protein Tat (Human immunodeficiency virus type 1 group M subtype B (isolate HXB2)(HIV-1), UniProt P04608); type: functional;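 also: tat binding to TAR RNA read out by fluorescence polarization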
T4 sequence (P04608 whole entry): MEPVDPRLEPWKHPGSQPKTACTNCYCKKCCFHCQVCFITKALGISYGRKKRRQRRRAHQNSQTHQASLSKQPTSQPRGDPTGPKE

[23] = molecular target: T5, Oxysterols receptor LXR-beta (Homo sapiens, UniProt P55055); assay: LXR agonists, Gal4 luciferase reporter, dose response, counter-screen for ssDAF-12 agonist project, cell-based, luminescence, HEK293, S. stercoralis campaign (AID 720737); type: functional; conditions: read-out: IC50 (the source's name)
T5 sequence (P55055 whole entry): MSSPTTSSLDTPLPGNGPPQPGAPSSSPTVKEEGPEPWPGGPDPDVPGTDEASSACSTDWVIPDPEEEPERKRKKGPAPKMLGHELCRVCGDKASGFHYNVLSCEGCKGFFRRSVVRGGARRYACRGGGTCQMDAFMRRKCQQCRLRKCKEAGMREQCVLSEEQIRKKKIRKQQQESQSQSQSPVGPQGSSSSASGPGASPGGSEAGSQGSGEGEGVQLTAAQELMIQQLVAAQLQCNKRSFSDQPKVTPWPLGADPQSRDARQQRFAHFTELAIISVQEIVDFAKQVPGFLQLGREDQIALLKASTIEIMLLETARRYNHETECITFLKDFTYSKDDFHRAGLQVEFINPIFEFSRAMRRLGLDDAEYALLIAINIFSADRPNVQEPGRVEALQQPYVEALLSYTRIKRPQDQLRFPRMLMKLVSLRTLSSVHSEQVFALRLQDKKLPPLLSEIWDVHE

[24] = Luminescence-based cell-based high throughput dose response assay to identify activators of the DAF-12 from the parasite S. stercoralis (ssDAF-12).; type: functional
Estrogen receptor = molecular target: T6, Estrogen receptor (Homo sapiens, UniProt P03372);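 also: potency for inhibiting coactivator peptide recruitment to the receptor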
T6 sequence (P03372 whole entry): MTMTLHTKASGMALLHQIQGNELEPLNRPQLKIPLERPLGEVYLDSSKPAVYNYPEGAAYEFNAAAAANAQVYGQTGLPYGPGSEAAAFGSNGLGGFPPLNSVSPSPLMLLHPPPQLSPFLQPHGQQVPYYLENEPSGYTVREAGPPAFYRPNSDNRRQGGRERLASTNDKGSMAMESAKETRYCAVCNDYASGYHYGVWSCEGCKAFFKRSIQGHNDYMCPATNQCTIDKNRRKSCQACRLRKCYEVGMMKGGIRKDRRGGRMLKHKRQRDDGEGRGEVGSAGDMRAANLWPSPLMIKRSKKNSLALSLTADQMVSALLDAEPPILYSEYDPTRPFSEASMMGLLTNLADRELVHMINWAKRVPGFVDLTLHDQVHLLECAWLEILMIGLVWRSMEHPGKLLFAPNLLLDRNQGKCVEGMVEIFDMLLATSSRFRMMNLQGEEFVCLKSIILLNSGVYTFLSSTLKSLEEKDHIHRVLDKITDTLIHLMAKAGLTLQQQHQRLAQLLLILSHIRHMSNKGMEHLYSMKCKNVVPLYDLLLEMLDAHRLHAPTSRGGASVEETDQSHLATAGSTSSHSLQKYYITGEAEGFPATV

Nonstructural protein 1 = Nonstructural protein 1 (Influenza A virus, UniProt Q194T2); type: functional, Influenza A virus (A/California/07/2009(H1N1))
BJ [25] = assay: BJ-TERT fibroblast viability loss – cell-based, RAS-independent, luminescence, dose response (AID 1933); type: functional; conditions: Homo sapiens
BJ [26] = assay: BJ-TERT-LT-ST fibroblast viability loss – cell-based, RAS-independent, luminescence, dose response (AID 1935); type: functional; conditions: Homo sapiens;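 also: BJ fibroblasts immortalized with TERT plus LT and ST oncogenes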
BJ [27] = assay: cells; type: functional, cell-based; conditions: Homo sapiens
[28] = DRD fibroblast viability loss – cell-based, non-viral oncogenic, luminescence, dose response (AID 1934); type: functional; conditions: Homo sapiens

T2 sequence (P49327 whole entry): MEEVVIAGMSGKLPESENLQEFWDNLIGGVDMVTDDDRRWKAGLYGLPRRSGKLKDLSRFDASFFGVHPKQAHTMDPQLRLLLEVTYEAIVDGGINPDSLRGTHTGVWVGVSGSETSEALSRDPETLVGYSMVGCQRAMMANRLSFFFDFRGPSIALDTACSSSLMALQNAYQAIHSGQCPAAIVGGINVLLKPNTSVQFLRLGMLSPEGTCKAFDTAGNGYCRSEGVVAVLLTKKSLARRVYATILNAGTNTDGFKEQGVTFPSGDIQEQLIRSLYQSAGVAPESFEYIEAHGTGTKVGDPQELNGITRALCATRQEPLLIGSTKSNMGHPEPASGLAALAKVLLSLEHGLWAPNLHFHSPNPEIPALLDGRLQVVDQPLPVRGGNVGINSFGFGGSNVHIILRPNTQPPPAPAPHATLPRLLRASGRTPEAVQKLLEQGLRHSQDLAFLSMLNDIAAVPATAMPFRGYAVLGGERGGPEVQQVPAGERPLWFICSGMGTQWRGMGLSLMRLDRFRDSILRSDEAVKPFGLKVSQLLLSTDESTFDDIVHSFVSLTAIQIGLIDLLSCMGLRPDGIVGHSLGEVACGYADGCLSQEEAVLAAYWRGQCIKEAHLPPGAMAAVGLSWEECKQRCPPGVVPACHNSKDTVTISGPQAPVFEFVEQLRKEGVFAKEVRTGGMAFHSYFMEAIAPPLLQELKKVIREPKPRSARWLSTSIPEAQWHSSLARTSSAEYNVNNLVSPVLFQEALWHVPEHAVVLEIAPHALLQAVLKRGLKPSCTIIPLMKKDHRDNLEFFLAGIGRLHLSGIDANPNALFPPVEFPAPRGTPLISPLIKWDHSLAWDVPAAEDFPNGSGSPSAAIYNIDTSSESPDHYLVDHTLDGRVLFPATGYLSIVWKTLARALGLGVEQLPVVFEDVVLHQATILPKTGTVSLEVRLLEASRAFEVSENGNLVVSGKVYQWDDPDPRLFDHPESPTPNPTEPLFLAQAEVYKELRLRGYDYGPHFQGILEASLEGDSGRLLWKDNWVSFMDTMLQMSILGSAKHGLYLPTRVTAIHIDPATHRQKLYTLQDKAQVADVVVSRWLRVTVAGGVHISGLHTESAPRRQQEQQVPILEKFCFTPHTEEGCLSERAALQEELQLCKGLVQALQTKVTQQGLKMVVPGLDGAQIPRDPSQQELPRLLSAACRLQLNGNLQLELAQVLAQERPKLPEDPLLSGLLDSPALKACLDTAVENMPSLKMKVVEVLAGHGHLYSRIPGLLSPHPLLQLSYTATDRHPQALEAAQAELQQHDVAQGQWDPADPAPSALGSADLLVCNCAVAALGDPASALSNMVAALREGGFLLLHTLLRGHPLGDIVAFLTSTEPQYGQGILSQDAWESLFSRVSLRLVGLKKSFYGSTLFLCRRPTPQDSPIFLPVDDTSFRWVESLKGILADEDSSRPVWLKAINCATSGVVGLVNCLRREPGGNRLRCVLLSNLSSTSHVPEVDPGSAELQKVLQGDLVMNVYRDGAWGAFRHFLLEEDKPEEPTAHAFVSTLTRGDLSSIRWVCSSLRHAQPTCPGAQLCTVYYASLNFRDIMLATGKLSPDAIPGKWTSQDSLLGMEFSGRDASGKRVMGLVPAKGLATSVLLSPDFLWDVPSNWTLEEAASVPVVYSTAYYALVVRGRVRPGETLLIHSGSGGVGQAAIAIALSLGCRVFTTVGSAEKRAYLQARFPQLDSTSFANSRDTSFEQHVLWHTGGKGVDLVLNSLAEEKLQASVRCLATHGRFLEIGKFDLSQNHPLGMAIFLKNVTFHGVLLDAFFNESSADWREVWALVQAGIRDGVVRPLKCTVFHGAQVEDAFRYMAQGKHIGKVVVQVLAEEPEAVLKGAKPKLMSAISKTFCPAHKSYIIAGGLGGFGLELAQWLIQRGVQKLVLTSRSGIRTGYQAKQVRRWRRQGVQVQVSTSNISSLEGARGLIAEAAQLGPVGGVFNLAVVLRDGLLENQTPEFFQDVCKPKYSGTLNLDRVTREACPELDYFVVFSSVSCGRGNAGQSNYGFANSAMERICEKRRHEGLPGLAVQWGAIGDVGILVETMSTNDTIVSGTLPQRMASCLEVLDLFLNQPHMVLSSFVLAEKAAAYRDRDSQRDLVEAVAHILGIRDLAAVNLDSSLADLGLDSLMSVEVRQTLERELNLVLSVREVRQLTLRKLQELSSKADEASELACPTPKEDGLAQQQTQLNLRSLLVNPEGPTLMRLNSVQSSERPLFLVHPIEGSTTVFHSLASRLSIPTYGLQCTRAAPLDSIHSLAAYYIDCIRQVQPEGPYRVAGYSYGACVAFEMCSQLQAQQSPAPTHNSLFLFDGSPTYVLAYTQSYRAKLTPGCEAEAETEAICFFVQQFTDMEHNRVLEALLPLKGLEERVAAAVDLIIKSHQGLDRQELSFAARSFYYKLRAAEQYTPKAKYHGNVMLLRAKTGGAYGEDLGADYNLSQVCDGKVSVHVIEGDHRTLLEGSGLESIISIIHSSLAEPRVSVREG
Chain of Cytochrome P450 2C9 (P11712 whole entry): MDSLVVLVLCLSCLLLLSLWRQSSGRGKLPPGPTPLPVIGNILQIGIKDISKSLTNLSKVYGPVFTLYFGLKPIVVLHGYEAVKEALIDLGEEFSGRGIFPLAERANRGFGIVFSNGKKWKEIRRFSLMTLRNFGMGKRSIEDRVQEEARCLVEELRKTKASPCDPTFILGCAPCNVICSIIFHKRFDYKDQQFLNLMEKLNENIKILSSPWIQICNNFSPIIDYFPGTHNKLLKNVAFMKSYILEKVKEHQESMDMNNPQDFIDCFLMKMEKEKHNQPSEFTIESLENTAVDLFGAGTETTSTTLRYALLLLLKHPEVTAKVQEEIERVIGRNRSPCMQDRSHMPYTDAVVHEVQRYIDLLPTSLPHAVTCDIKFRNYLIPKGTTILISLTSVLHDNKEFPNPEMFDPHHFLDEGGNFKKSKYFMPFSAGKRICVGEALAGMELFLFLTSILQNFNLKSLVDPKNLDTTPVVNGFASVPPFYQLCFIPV
Chain of Nonstructural protein 1 (Q194T2 whole entry): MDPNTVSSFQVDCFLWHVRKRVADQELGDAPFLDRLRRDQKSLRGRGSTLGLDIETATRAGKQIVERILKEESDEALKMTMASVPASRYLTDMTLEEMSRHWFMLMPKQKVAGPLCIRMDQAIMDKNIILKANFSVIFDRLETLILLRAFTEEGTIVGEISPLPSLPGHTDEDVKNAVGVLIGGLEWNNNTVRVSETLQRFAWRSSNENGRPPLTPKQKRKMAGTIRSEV
Chain of Cytochrome P450 3A4 (P08684 whole entry): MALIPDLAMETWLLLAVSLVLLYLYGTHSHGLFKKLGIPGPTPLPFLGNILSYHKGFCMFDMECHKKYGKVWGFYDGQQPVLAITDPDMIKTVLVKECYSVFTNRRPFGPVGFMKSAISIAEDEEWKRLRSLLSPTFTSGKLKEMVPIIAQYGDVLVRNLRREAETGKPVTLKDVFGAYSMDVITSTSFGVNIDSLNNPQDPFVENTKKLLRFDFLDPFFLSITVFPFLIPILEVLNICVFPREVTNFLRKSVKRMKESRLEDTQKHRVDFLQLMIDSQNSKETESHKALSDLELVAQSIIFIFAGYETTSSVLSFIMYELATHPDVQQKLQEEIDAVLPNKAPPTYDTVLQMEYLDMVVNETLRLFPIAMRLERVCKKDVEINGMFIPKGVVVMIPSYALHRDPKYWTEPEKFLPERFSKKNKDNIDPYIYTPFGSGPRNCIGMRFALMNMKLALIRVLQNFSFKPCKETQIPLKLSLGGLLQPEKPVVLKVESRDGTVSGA
Chain of Cytochrome P450 2D6 (P10635 whole entry): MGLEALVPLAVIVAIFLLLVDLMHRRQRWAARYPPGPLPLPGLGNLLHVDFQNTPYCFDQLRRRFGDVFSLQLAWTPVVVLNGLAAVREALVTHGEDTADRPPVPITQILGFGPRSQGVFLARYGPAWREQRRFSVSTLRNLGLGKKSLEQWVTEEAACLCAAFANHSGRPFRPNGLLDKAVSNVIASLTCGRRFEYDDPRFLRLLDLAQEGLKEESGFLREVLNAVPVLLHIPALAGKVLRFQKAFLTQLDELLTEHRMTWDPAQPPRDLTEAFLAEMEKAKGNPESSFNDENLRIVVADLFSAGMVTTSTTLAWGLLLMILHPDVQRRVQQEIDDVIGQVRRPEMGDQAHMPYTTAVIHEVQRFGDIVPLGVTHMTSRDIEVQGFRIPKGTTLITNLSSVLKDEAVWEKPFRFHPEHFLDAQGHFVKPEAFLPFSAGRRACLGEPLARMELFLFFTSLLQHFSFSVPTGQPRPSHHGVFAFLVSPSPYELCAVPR

## O=c1cc(CN2CCN(Cc3ccccc3)CC2)c2ccc(O)cc2o1
[1]
  EC50: > 60 µM (not active)
[2]
  EC50: < 0.1 µM (active)
Cells [3]
  EC50: 0.038 µM (active)

## O=[N+]([O-])c1c(NCCCO)cc(Sc2ccc(Cl)cc2)c2nonc12
[4]
  AC50: 25.4 µM (active)
[5]
  EC50: 4.81 µM (active)
[6]
  AC50: 5.63 µM (active)
[7]
  AC50: 4.49 µM (active)
[8]
  EC50: 9.46 µM (active)
Fatty acid synthase [9]
  IC50: 11.5 µM (active)
[10]
  EC50: 13.5 µM (active)
[11]
  IC50: > 50 µM (not active)
[12]
  AC50: 12.7 µM (active)
Fatty acid synthase [13]
  IC50: 6.69 µM (active)

## CN1CCc2c(sc3c2c(=O)n(-c2ccccc2)c2nnc(SCc4ccccc4)n32)C1
[1]
  EC50: > 60 µM (not active)
[2]
  EC50: < 0.1 µM (active)
Cells [3]
  EC50: 0.015 µM (active)

## CCC(=O)Nc1cccc(C(=O)OCc2cccc([N+](=O)[O-])c2)c1
Prothrombin
  IC50: > 50 µM (not active)

## CCOc1nc(NCCN2CCOCC2)nc(Nc2ccc(C)cc2)n1
Cytochrome P450 2D6
  AC50: 11.2 µM (inconclusive)
Cytochrome P450 2C9
  AC50: 11.2 µM (inconclusive)
Cells [14]
  EC50: > 350 µM (not active)
Cytochrome P450 3A4
  AC50: 15.8 µM (inconclusive)
Prothrombin
  IC50: > 50 µM (not active)
Cells [15]
  EC50: > 350 µM (not active)

## COc1ccc(C#Cc2ccc3c(c2)[C@H]2[C@H](CCN2C(=O)C2CCCC2)[C@@H](CO)N3)cc1
[16]
  AC50: 2.2 µM (active)
[17]
  AC50: 1.99 µM (active)
[18]
  AC50: 2.04 µM (active)
[19]
  AC50: 1.67 µM (active)

## CCc1cc2c(N3CCCCC3)ncnc2s1
[20]
  CC50: > 40 µM (active)

## CCOC(=O)C1=C(N)c2ccccc2CC1C(C)C (stereo unspecified)
[21]
  EC50: > 20 µM (not active)
[22]
  EC50: > 20 µM (not active)

## Cc1ccc2c(CN3CCN(Cc4ccccc4)CC3)cc(=O)oc2c1
[1]
  EC50: > 60 µM (not active)
[2]
  EC50: < 0.1 µM (active)
Cells [3]
  EC50: 0.049 µM (active)

## CC(=O)c1ccc(S(=O)(=O)Nc2ccc(-c3cn4c(n3)SCC4)cc2)cc1
Prothrombin
  IC50: > 50 µM (not active)

## CC(C)CN(C(=O)CN1CCN(c2ccc(O)cc2)CC1)c1c(N)n(CC(C)C)c(=O)[nH]c1=O
Protein Tat
  IC50: > 100 µM (active)

## CCCCCCC1(C)N=C(S)N(c2ccccc2)N1 (stereo unspecified)
[23]
  EC50: > 67.6 µM (inactive)
[24]
  IC50: > 67.6 µM (inactive)

## COC(=O)C1=C(N)Oc2cc(C)n(Cc3cccnc3)c(=O)c2C1c1cccc(OC)c1OC (stereo unspecified)
[20]
  CC50: > 40 µM (active)

## C(=N\Nc1nc2ccccc2s1)/c1ccc2c(c1)OCO2
[23]
  EC50: > 67.5 µM (inactive)
[24]
  IC50: > 67.5 µM (inactive)

## O=C(CCCN1C(=O)c2cccnc2C1=O)N1CC(=O)N(CCc2ccccc2)C(=O)C1
[21]
  EC50: > 20 µM (not active)
[22]
  EC50: > 20 µM (not active)

## Oc1ccc2ccccc2c1/C=N\C1CCCCC1
[11]
  IC50: 23.3 µM (active)

## CS(=O)(=O)c1ccc2nc(NC(=O)CCC(=O)c3cccs3)sc2c1
Estrogen receptor
  IC50: 7.11 µM (active)

## COc1ccc2c3c(n(C)c2c1)[C@@H](CO)N(C(=O)Nc1ccc(F)cc1)CC31CCN(Cc2ccccn2)CC1
[16]
  AC50: 2.11 µM (active)
[17]
  AC50: 1.69 µM (active)
[18]
  AC50: 3.18 µM (active)
[19]
  AC50: 2.05 µM (active)

## O=C1CC(Nc2ccc(N3CCOCC3)cc2)C(=O)N1c1cccc(C(F)(F)F)c1 (stereo unspecified)
Protein Tat
  IC50: 29.5 µM (inconclusive)
Nonstructural protein 1
  IC50: > 100 µM (active)

## O=C(/C=C/c1cccs1)Nc1ccc(Br)cn1
BJ [25]
  EC50: 0.417 µM (inconclusive)
[20]
  CC50: > 40 µM (active)
BJ [26]
  EC50: 10.2 µM (inconclusive)
BJ [27]
  EC50: 25.5 µM (inconclusive)
[28]
  EC50: 0.373 µM (inconclusive)

## Nc1nnc(SCCCC(=O)c2ccccc2)s1
Prothrombin
  IC50: > 50 µM (not active)
